Test system: Ehrlich ascites carcinoma (EAC) cells
Test: EAC cytotoxicity assay in vitro (trypan blue exclusion)
Assay type: cell-based, mouse
Settings: 2 h at 37 °C
Method: The cytotoxicity determination of compound (2) against EAC cells was calculated by the trypan blue exclusion method. The EAC cells were aspirated from the mouse’s peritoneal cavity by a sterile syringe and immediately transferred into a sterile falcon tube. Then, the cells were washed with sterile PBS to remove any serum or blood traces and centrifuged for 3 min, after which the supernatant was removed. After washing 2–3 times with PBS, the cell pellet was aspirated into a sterile falcon tube and every 1 mL of cell pellet was resuspended in 9 mL of sterile PBS until a concentration of […] in 0.1 mL was achieved, as determined with a hemocytometer; where 0.1 mL of cell suspension was added to 0.880 mL PBS then 20 μL of trypan blue was added. The cells’ viability was checked using a hemocytometer and found to be greater than 98%. […] Cells were visualized and counted under the microscope. For each sample at least 500 cells were counted, and the percent of dead to live cells was calculated. […] The percentage of cell viability was calculated using Equations (5) and (6):(5) % Cytotoxicity=Tdead−Cdead/Ttotal×100% % Viability = 100 − % Cytotoxicity(6) where Tdead is the number of dead cells in the treated tube, Cdead is the number of dead cells in the control tube, and Ttotal is the total number of cells (dead + live) in the treated tube.

Structure (SMILES): CS(C)=O.Nc1ccccc1-c1nc2ccccc2[nH]1.O.[Cl][Ru]([Cl])[Cl] [(2), [Ru(III)Cl3(DMSO)(Hapbim)]·H2O]
- IC50 against EAC cells: 70 ± 1 µg/mL

Source: publication PMC7570852, “Ruthenium(II)/(III) DMSO-Based Complexes of 2-Aminophenyl Benzimidazole with In Vitro and In Vivo Anticancer Activity” (Molecules, 2020)
